Test results published in patent publication US20240245059A1 (priority 2021, published 2024).

Tests used:
Fusarium graminearum = type: in vivo; settings: 2 L/ha of 10% w/w solution; one application 2 days after inoculation; incidence of affected leaves vs untreated
Ca. Phytoplasma vitis = assay: Open field testing on phytoplasma, ddPCR quantification of DNA and RNA in Pervinca rosea; type: in vivo; settings: 2 L/ha, endotherapy treatment, 48 hours after exposure, high values = reduced/no antibacterial activity; for % DNA: untreated 91; for % RNA: untreated 94
Method: Open Filed Testing on Phytoplasma—Antibacterial Activity on Ca. Phytoplasma vitis by Mixtures of Fatty Acids and Peptides
The activity on phytoplasma of three peptides (SEQ.ID.NO.: 1, 2 and 9), of crotonic and pelargonic acid and of the mixtures of these fatty acids with the aforementioned peptides were evaluated on Pervinca rosea suitably contaminated by Ca. Phytoplasma vitis.
The peptides of SEQ.ID.NO.: 1, 2 and 9 were dissolved in water at a concentration of 10% w/w. Aqueous solutions of crotonic and pelargonic acids were prepared at a concentration of 10% w/w. Aqueous solutions of peptides and solutions of fatty acids were mixed together, in order to obtain six different mixtures at a concentration of 10% w/w of peptide and acid.
The evaluation of the efficacy of the products used was evaluated with ddPCR (Droplet Digital PCR) technique for the quantification of the genetic material (DNA and RNA) after 48 hours from exposure to endotherapy treatment. High % DNA and RNA values are related to reduced/no antibacterial activity.

Molecule	Efficacy (%) 1° check (Fusarium graminearum) [%]	Efficacy (%) 2° check (Fusarium graminearum) [%]	Efficacy (%) 3° check (Fusarium graminearum) [%]	% DNA (Ca. Phytoplasma vitis) [%]	% RNA (Ca. Phytoplasma vitis) [%]
C/C=C/C(=O)O [Crotonic acid]	8	7	10	76	84
CCCCCCCCC(=O)O [Pelargonic acid]	10	8	9	84	86
Hs_AFP1: plant defensin antimicrobial peptide, SEQ.ID.NO: 1, per se known (DGVKLCDVPSGTWSGHCGSSSKCSQQCKDREHFAYGGACHYQFPSVKCFCKRQC; None)	35	27.4	26.5	75	78
Ps_Def1: plant defensin antimicrobial peptide, SEQ.ID.NO: 9 (RMCKTPSGKFKGYCVNNTNCKNVCRTEGFPTGSCDFHVAGRKCYCYKPCP; None)	30	27	32	82	80
Rs_AFP2: plant defensin antimicrobial peptide, SEQ.ID.NO: 2, per se known (QKLCQRPSGTWSGVCGNNNACKNQCIRLEKARHGSCNYVFPAHKCICYFPC; None)	38	34	25.4	81	80
